Data published in paper PMC8025741 (Journal of medicinal chemistry, 2020).
“Also recorded” adds a separate entry of the source. Where a name gives a salt, the structure may show the parent alone. Read-outs that look alike come from different tables or passages of the source.

Legend:
[1] = test system: 5XFAD mice; assay: fear conditioning test in 5XFAD mice; format: in vivo, mouse; details: 5XFAD mice at 8 months, 10 mg/kg ip daily for 5 months, listed as 1 (PDDC)
[2] = in vitro metabolic stability, human liver microsomes; details: pH 7.4
[3] = stability studies and metabolite identification in mice and human microsomes; details: for metabolic stability (in words): mice and human microsomes
[4] = cited from earlier work
[5] = cited from earlier work; remark: listed apart in the source

| SMILES | metabolic stability (in words) [3] | also measured |
| --- | --- | --- |
| COc1ccc(-c2c(C)nc3c(N4CC[C@@H](NC(=O)Oc5ccccc5)C4)cc(C)nn23)cc1OC [Compound 1, Phenyl(R)-(1-(3-(3,4-Dimethoxyphenyl)-2,6-dimethylimidazo[1,2-b]pyridazin-8-yl)pyrrolidin-3-yl)carbamate] | generally stable | contextual fear memory (freezing, day 2) [1]: performed like WT controls; remaining at 1 h, 1 µM [2]: 103 ± 14%; metabolite identification (MET-ID) ([3]; human and mouse liver microsomes, Figure S1): O-demethylated metabolite |
| COc1cc(-c2nc(-c3cccs3)c(-c3ccccc3)[nH]2)cc(OC)c1O [DPTIP] | – | oral bioavailability (in words) [4]: not orally bioavailable; brain penetration (in words) ([4]; vs PDDC): poor brain penetration |
| CC(=O)N[C@@H]1CCN(c2cc(C)nn3c(-c4ccc(OC(F)(F)F)cc4)c(C)nc23)C1 [Compound 47, (R)-N-(1-(2,6-Dimethyl-3-(4-(trifluoromethoxy)-phenyl)imidazo[1,2-b]pyridazin-8-yl)pyrrolidin-3-yl)acetamide] | reasonable metabolic stability | – |
| O=c1[nH]c(=S)[nH]c(-c2ccccc2)c1Cc1c(O)ccc2ccccc12 [cambinol] | – | metabolic stability (in words) [5]: poor metabolic stability |
| COc1ccc(-c2c(C)nc3c(N4CCCC4)cc(C)nn23)cc1OC [Compound 76c, 3-(3,4-Dimethoxyphenyl)-2,6-dimethyl-8-(pyrrolidin-1-yl)imidazo[1,2-b]pyridazine] | metabolically unstable | – |
| COc1ccc(-c2c(C)nc3c(N4CC[C@@H](NS(=O)(=O)c5cccs5)C4)cc(C)nn23)cc1OC [Compound 73, (R)-N-(1-(3-(3,4-Dimethoxyphenyl)-2,6-dimethylimidazo[1,2-b]pyridazin-8-yl)pyrrolidin-3-yl)thiophene-2-sulfonamide] | generally stable; also recorded: completely stable | – |
| COc1ccc(-c2c(C)nc3c(N4CC[C@@H](NS(=O)(=O)C5CC5)C4)cc(C)nn23)cc1OC [Compound 66, (R)-N-(1-(3-(3,4-Dimethoxyphenyl)-2,6-dimethylimidazo[1,2-b]pyridazin-8-yl)pyrrolidin-3-yl)cyclopropanesulfonamide] | generally stable; also recorded: completely stable | – |
| COc1ccc(-c2c(C)nc3c(N4CC[C@@H](NC(=O)Nc5ccccc5)C4)cc(C)nn23)cc1OC [Compound 59, (R)-1-(1-(3-(3,4-Dimethoxyphenyl)-2,6-dimethylimidazo[1,2-b]pyridazin-8-yl)pyrrolidin-3-yl)-3-phenylurea] | generally stable | – |
| CCCCCC(=O)N[C@@H]1CCN(c2cc(C)nn3c(-c4ccc(OC)c(OC)c4)c(C)nc23)C1 [Compound 53, (R)-N-(1-(3-(3,4-Dimethoxyphenyl)-2,6-dimethylimidazo[1,2-b]pyridazin-8-yl)pyrrolidin-3-yl)hexanamide Hydrochloride] | generally stable | – |
| COc1ccc(-c2c(C)nc3c(N4CC[C@@H](NC(=O)C(F)(F)F)C4)cc(C)nn23)cc1OC [Compound 52, (R)-N-(1-(3-(3,4-Dimethoxyphenyl)-2,6-dimethylimidazo[1,2-b]pyridazin-8-yl)pyrrolidin-3-yl)-2,2,2-trifluoroacetamide] | generally stable | – |
